In paper PMC9228592, “Dichloroacetyl Amides of 3,5-Bis(benzylidene)-4-piperidones Displaying Greater Toxicity to Neoplasms than to Non-Malignant Cells” (Medicines, 2022):
*1 amine or outer side, *2 acyl side, *3 side chain or, on linkers, in order; H or OH if unused. Where a SMILES comes first, the peptide text is derived from it. Bridges are numbered along the chain shown (N, C = ends). Roman numbers before positions name the chains, in order. [ ]: non-standard residue; d: D form. Actinocin(9to1) = Cc1c2oc3c(C)ccc(C(=O)[*:1])c3nc-2c(C(=O)[*:2])c(N)c1=O; NMeV = CN[C@H](C(=O)O)C(C)C; Sar = CNCC(=O)O

Assays:
Type in all cases: cell-based, human
[1] = tested on: Ca9-22 squamous cell carcinoma cells; assay: Cytotoxicity (MTT, 48 h) against Ca9-22 cells; conditions: for CC50: Homo sapiens, Ca9-22, 48 h, MTT, mean ± S.D. of triplicate; for SI (Ca9-22): average CC50 towards HGF, HPLF, HPC divided by CC50 against Ca9-22
Description: (§1) The target cells used in our study were human oral squamous cell carcinoma cell lines Ca9-22 (purchased from RIKEN Cell Bank, Tukuba, RCB-1976), HSC-2 (RCB1945), HSC-3 (RCB1975), HSC-4 (RCB1902), and three human normal oral cells, gingival fibroblast (HGF), periodontal ligament fibroblast (HPLF), and pulp cells (HPC) [established from the first premolar extracted tooth in the lower jaw (because of dysfunctional position or orthodontic treatment) and periodontal tissues of a child, according to the guideline of the Institutional Board of Meikai University Ethics Committee (No. A0808)], after obtaining informed consent from the patients. These cells were incubated for 48 h with the indicated concentrations of test samples or reference compounds sodium dichloroacetate (purchased from Sigma-Aldrich Chemical Company, Saint Louis, MO, USA), 5-fluorouracil (5-FU) from Kyowa (Tokyo, Japan), and doxorubicin (DXR) (St. Louis, MO, USA) and vehicle (DMSO) (0.008, 0.016, 0.031, 0.063, 0.125, 0.25, 0.5, and 1%) in Dulbecco’s Modified Eagle Medium (DMEM) media, which was supplemented with 10% heat-inactivated fetal bovine serum. Cell viability was determined by the MTT method. Cytotoxicity caused by the vehicle (DMSO) was subtracted.
(§2) SI was calculated by dividing the average CC50 value (concentration of the compound to kill 50% of the cells) of the compound towards HGF, HPLF, and HPC cells by the CC50 value of the compound against a specific neoplastic cell line.

[2] = tested on: HSC-2 squamous cell carcinoma cells; assay: Cytotoxicity (MTT, 48 h) against HSC-2 cells; conditions: for CC50: Homo sapiens, HSC-2, 48 h, MTT, mean ± S.D. of triplicate; for SI (HSC-2): average CC50 towards HGF, HPLF, HPC divided by CC50 against HSC-2
Description: as §1, §2

[3] = tested on: HSC-3 squamous cell carcinoma cells; assay: Cytotoxicity (MTT, 48 h) against HSC-3 cells; conditions: for CC50: Homo sapiens, HSC-3, 48 h, MTT, mean ± S.D. of triplicate; for SI (HSC-3): average CC50 towards HGF, HPLF, HPC divided by CC50 against HSC-3
Description: as §1, §2

[4] = tested on: HSC-4 squamous cell carcinoma cells; assay: Cytotoxicity (MTT, 48 h) against HSC-4 cells; conditions: for CC50: Homo sapiens, HSC-4, 48 h, MTT, mean ± S.D. of triplicate; for SI (HSC-4): average CC50 towards HGF, HPLF, HPC divided by CC50 against HSC-4
Description: as §1, §2

[5] = Cytotoxicity (MTT, 48 h) against HGF non-malignant cells; conditions: human, normal gingival fibroblasts (HGF), mean ± S.D. of triplicate
Description: as §1

[6] = Cytotoxicity (MTT, 48 h) against HPLF non-malignant cells; conditions: human, normal periodontal ligament fibroblasts (HPLF), mean ± S.D. of triplicate
Description: as §1

[7] = Cytotoxicity (MTT, 48 h) against HPC non-malignant cells; conditions: female, human, normal pulp cells (HPC), mean ± S.D. of triplicate
Description: as §1

[8] = tested on: Ca9-22, HSC-2, HSC-3, and HSC-4 cells; assay: Average cytotoxicity, selectivity and PSE over the four carcinoma lines; conditions: for CC50: Homo sapiens, average over Ca9-22, HSC-2, HSC-3, HSC-4; for Average SI: average of SI over Ca9-22, HSC-2, HSC-3, HSC-4
Description: as §1, §2
PSE reflects both the potencies and differences in cytotoxicity to neoplasms and non-malignant cells. This value was the product of the reciprocal of the average CC50 value of the compounds towards Ca9-22, HSC-2, HSC-3, and HSC-4 cells and the average SI value × 100.

[9] = Average cytotoxicity over the three non-malignant cells; conditions: female, human, normal oral cells HGF, HPLF and HPC (average over the three)
Description: as §1

[10] = tested on: Ca9-22 cells; assay: Cell cycle assay in Ca9-22 cells; conditions: 20 h
Experimental: The evaluation of varying quantities of 1d,e,k on the cell cycle in Ca9-22 cells was undertaken by a literature method. In brief, Ca9-22 cells were treated for 20 h without (control) or with the indicated concentrations of the test samples. To neglect the cytotoxicity effect of DMSO, all samples contained 0.1% DMSO. Cells (approximately 10^6 cells) were harvested, fixed for 1 h on ice with 1% paraformaldehyde, washed twice by phosphate-buffered saline, treated for 30 min at 37 °C with 0.2 mg/mL RNase A (ribonuclease A), stained for 15 min at room temperature with 0.01% propidium iodide in the presence of 0.01% NP-40 (nonyl phenoxypolyethoxyethanol) to prevent cell aggregation, filtered through Falcon® cell strainers (pore size: 40 µm) (Corning, NY, USA), subjected to cell sorting (SH800 Series; SONY Imaging Products and Solutions Inc., Kanagawa, Japan), and then analyzed with Cell Sorter Software version 2.1.2. (SONY Imaging Products and Solutions Inc., Kanagawa, Japan).

[11] = tested on: Ca9-22 cells; assay: Mitotic accumulation in Ca9-22 cells
Experimental: Another way in which cytotoxicity could occur is by initiating mitosis. In order to examine this possibility, different concentrations of the potent cytotoxin 1k that were 3, 10, and 30 times the CC50 value were incubated with Ca9-22 cells for 20 h. […] In order to explore the possibility that the dichloroacetyl group contributed to this effect, concentrations of 2a that were 3, 10, and 30 times the CC50 concentration were incubated with Ca9-22 cells for 20 h. […] The question arose as to the way in which this observation could be useful in anticancer drug design. Cells which are stimulated to divide are likely more sensitive to a subsequent attack of a cytotoxin when cells are in a resting stage, for example.

[12] = tested on: PARP; assay: PARP cleavage in Ca9-22 cells (Western blot)
Experimental: (§3) The effect of 20 h incubation of different concentrations of 1k and 2a with Ca9-22 cells on the cleavage of PARP and procaspase 3 cleavage was undertaken using a reported procedure. In brief, the control and treated Ca9-22 cells at near confluent phase were collected and lysed, and protein samples of cell lysates (15 µg) were applied to SDS-polyacrylamide gel electrophoresis. After electrophoresis, the separated proteins were transferred onto a PVDF (polyvinylidene fluoride) filter. The blots were treated in skim milk and then probed for 120 min with a primary antibody cocktail (1:250) from an Apoptosis Western Blot Cocktail kit (purchased from Abcam, Cambridge, UK). The blots were washed and probed with horseradish peroxidase conjugated secondary antibody cocktail (1:100). Immunoreactivities were determined using Amer-sham ECL Select. Images were acquired using ChemiDoc MP System and Image Lab 4.1 software (Bio-Rad Laboratories, Hercules, CA, USA).

[13] = tested on: procaspase 3; assay: Procaspase 3 cleavage in Ca9-22 cells (Western blot)
Experimental: as §3

SMILES	CC50 [1] [nM]	SI (Ca9-22) [1]	CC50 [2] [nM]	SI (HSC-2) [2]	CC50 [3] [nM]	SI (HSC-3) [3]	CC50 [4] [nM]	SI (HSC-4) [4]	CC50 at 48 h [5] [µM]	CC50 at 48 h [6] [µM]	CC50 at 48 h [7] [µM]	CC50 [8] [nM]	Average SI [8]	CC50 at 48 h [9] [µM]	other results
O=C1/C(=C/c2ccc(Cl)cc2)CN(C(=O)C(Cl)Cl)C/C1=C\c1ccc(Cl)cc1 [Compound 1d]	50	28.8	100 ± 10	14.4	190 ± 20	7.58	180 ± 40	8.00	2.13 ± 0.12	1.29 ± 0.14	0.9 ± 0.02	130	14.7	1.44	G2M cell population ([10]; 0.8 µM, p < 0.05): most prominent increase; effect on the cell cycle ([10]; 0.1, 0.2, and 0.4 µM): little effects
COc1ccc(/C=C2\CN(C(=O)C(Cl)Cl)C/C(=C\c3ccc(OC)c(OC)c3)C2=O)cc1OC [Compound 1g]	110 ± 20	36.8	170 ± 20	23.8	280 ± 30	14.5	200 ± 40	20.3	8.13 ± 2.47	2.83 ± 1.53	1.19 ± 0.09	190	23.9	4.05	–
O=C1C(=Cc2ccccc2)CNCC1=Cc1ccccc1 [Compound 2a, 3,5-bis(benzylidene)-4-piperidone]	190 ± 30	–	390 ± 10	30.0	800 ± 70	14.6	790 ± 220	14.8	21.7 ± 6	9.1 ± 2.87	4.3 ± 0.72	540	30.3	11.7	mitotic accumulation ([11]; 2 µM and 6 µM, 20 h): mitotic accumulation occurred; PARP cleavage ([12]; 2 and 6 µM, 20 h): PARP was cleaved; cleavage of procaspase to caspase 3 ([13]; 2 and 6 µM, 20 h): cleavage of procaspase to caspase 3 was observed
CC(=O)N1C/C(=C\c2ccccc2)C(=O)/C(=C/c2ccccc2)C1 [Compound 2b]	640 ± 10	17.3	1230 ± 70	9.02	2250 ± 80	4.93	1570 ± 120	7.07	23 ± 1.7	5.6 ± 1.13	4.83 ± 0.12	1420	9.58	11.1	–
O=c1[nH]cc(F)c(=O)[nH]1 [Compound 5-FU, 5-fluorouracil, reference compound]	24500 ± 12300	>40.7	30500 ± 7100	>32.7	61300 ± 9800	>16.3	7580 ± 500	–	> 1000	> 1000	> 987	31000	>55.2	> 996	–
COc1cccc2c1C(=O)c1c(O)c3c(c(O)c1C2=O)C[C@@](O)(C(=O)CO)C[C@@H]3O[C@H]1C[C@H](N)[C@H](O)[C@H](C)O1 [DXR, doxorubicin, reference compound]	430 ± 40	>22.2	200 ± 20	>47.8	260 ± 210	>36.7	120	>79.6	> 10	> 10	> 8.65	250	>46.6	> 9.55	–
Cc1c2oc3c(C)ccc(C(=O)N[C@@H]4C(=O)N[C@H](C(C)C)C(=O)N5CCC[C@H]5C(=O)N(C)CC(=O)N(C)[C@@H](C(C)C)C(=O)O[C@@H]4C)c3nc-2c(C(=O)N[C@@H]2C(=O)N[C@H](C(C)C)C(=O)N3CCC[C@H]3C(=O)N(C)CC(=O)N(C)[C@@H](C(C)C)C(=O)O[C@@H]2C)c(N)c1=O [actinomycin D, reference compound] (I: T[dV]P[Sar][NMeV] / II: T[dV]P[Sar][NMeV]; ester I:1-I:C, II:1-II:C; linker I:N-II:N via Actinocin(9to1))	–	–	–	–	–	–	–	–	–	–	–	–	–	–	mitosis ([11]; 1 µM): Increased mitosis; PARP cleavage ([12]; 1 µM): Cleavage; procaspase 3 cleavage ([13]; 1 µM): Cleavage
